The values below are quoted from earlier work in patent publication US20220378704A1, “PROCESS FOR THE PREPARATION OF A NANOPARTICULATE ACTIVE INGREDIENT” (Bayer Aktiengesellschaft, priority 2019, published 2022).

For data set [1] the following is noted: within 5 min.

Turning to `C#C[C@]1(O)CC[C@H]2[C@@H]3CCC4=Cc5oncc5C[C@]4(C)[C@H]3CC[C@@]21C` [raw danazol particles, danazol], the specific surface area (before / after LASP process in the MCR) was 0.66 m^2/g. The mean particle size (before LASP process) is given as 55 μm. In addition, the dissolution rate in data set [1] is recorded as 35%.
